For data set [1], the system named is Wheat immature embryos. As to the kind of experiment: Wheat embryo germination assay. In kind it is in vivo. As to conditions: for Germinating root length / Germinating shoot length: ten days. Here is the method: Wheat immature embryos were exposed to different concentrations of AMPA and N-acetyl-AMPA in a wheat embryo germination assay. MMSO base media was prepared containing 40 grams per liter maltose, 2 grams per liter GELRITE™, MS salts, and vitamins. Salts, vitamins, and maltose were dissolved in 3500 ml water and the pH was adjusted to 5.8. 500 ml was dispensed into a separate bottle along with 1 gram of GELRITE™ and autoclaved for 17 minutes. After the medium had cooled to about 45° C., AMPA or N-acetyl-AMPA was added to a defined concentration. The mixture was poured into six square Sundae cups under sterile conditions and allowed to solidify.
Immature wheat embryos were isolated from twenty day old seedlings (after anther formation) and inoculated into each MMSO media. Each Sundae cup contained nine immature embryo's. Three separate plates were used for each concentration of AMPA (0, 0.1, 0.15, 0.2, 0.25, 0.3, and 1.0 mM) or N-acetyl-AMPA (0, 0.1, 0.3, 1.0, and 3.0 mM). Sundae cups were incubated for ten days and the length of roots and shoots were determined and compared.

For data set [2], the system named is transformed corn callus. As to the kind of experiment: [^14C]-glyphosate metabolism assay in corn callus. The text has this:
A [^14C]-glyphosate metabolism assay was used for determining whether transformed corn callus tissues contain functioning forms of these enzymes. The assay was developed to screen large numbers of corn callus samples. Callus was obtained from Monsanto Company and Dekalb Seed Company corn transformation groups. The Monsanto callus samples, individually designated as callus lines “19nn-nn-nn” in Table 16, were produced from HI II×B73 corn embryos. Callus samples were bombarded with complete covalently closed circular recombinant plant transformation vector plasmid DNA or with linear DNA fragments isolated from such plasmids 25-50 days after embryo isolation. Transformed lines were identified 8-14 weeks after bombardment. These lines were sub-cultured on fresh media every 2 weeks and were 5-7 months old when used in the metabolism assay. The Dekalb callus lines OO, OR, OW, OX, and OY were obtained from HI II×AW embryos. All line designations correspond to the recombinant plasmid or linear fragment used for ballistic transformation of callus tissue as noted in the legend to Table 16.
4.5 mCi of N-phosphono-[^14C]-methylglycine ([^14C]-glyphosate) was obtained from the Monsanto Radiosynthesis group in a 1.5 mM aqueous solution, having a specific radioactivity of 39.4 mCi/mM (5.2×10^5 dpm/microgram). The sample was identified with code number C-2182.2. A stock solution sterilized by filtration through a 0.2-micron Acrodisk (Gelman no. 4192) was prepared by combining 2.5 mL [^14C]-glyphosate (3.3×10^8 dpm) with 2.5 mL of corn callus growth medium (N6 medium) and 5.0 mg of Mon 0818 surfactant. [^14C]-glyphosate in the resulting dose solution was 0.75 mM. The N6 medium was described by Chu et al. (1975) and was prepared using salts and vitamins obtained from Sigma Chemical Company, St. Louis, Mo. Mon 0818 surfactant is ethoxylated tallowamine, the surfactant used in Roundup herbicide. The dose solution was subjected to HPLC analysis as described in Example 2. […] Two additional dose solutions were prepared using these reagents, each of which were scaled three fold to 15 ml volumes based on the preparation method described above.
Under aseptic conditions, corn callus samples were transferred to individual wells of sterile 48-well COSTAR™ cell culture clusters (cat. No. 3548). The individual callus samples were not weighed. However, in several cases the total weight of the callus samples in a 48-well plate was determined. Typically, the average weight of individual callus samples was approximately 200-250 mg. In each assay, a nontransformed callus sample, HI II×B73, was included as a control. 50 μL of dose solution containing 3.3×10^6 dpm of [^14C]-glyphosate was added to each callus sample. 48-well plates were sealed with parafilm and placed in a plastic bag containing a wet paper towel to provide a moist atmosphere. Bags were closed and placed in a dark drawer at 25° C. for 10 days. Each callus sample was subsequently transferred to a labeled microcentrifuge tube (VWR, 1.7-mL, cat. No. 20170-620). 1.0 mL of de-ionized water was added to each tube, and the tubes were closed and placed in round 20-tube floating microcentrifuge racks (Nalge cat. no. 5974-1015). These microfuge tubes were floated in boiling water for 30 minutes, shaken using a vortex mixer, and centrifuged for 5 minutes using a Fisher brand microcentrifuge. 120-μL supernatant samples were removed for analysis by HPLC as described below. The samples were injected using a Waters WISP autoinjector.

[3] abbreviates: FIG. 3, callus transformed with GOX and AMPA acetyltransferase.
[4] abbreviates: control callus HI II×B73, no inserted genes.

Values joined by “and” are separate entries in the source; they are usually repeats but may differ in a detail not shown here. Equal entries are not always repeated.

In the case of `NCP(=O)(O)O` [AMPA, N-aminomethyl phosphonic acid], the Germinating root length in data set [1] (0.10 mM) was 8.0 ± 2.0 cm; in data set [1] (0.15 mM), 6.3 ± 1.7 cm; in data set [1] (0.20 mM), 4.6 ± 2.1 cm; in data set [1] (0.25 mM), 3.1 ± 1.6 cm; in data set [1] (0.30 mM), 2.6 ± 1.6 cm; in data set [1] (1.00 mM), 0.4 ± 0.1 cm. In addition, the Germinating shoot length in data set [1] (0.10 mM) is listed as 11.7 ± 2.5 cm; in data set [1] (0.15 mM), 11.3 ± 2.1 cm; in data set [1] (0.20 mM), 9.2 ± 1.8 cm; in data set [1] (0.25 mM), 8.5 ± 1.8 cm; in data set [1] (0.30 mM), 6.6 ± 1.8 cm; in data set [1] (1.00 mM), 0.9 ± 0.1 cm. For the same molecule, the “germination of immature embryos” value in data set [1] (1.00 mM) is “eliminated the germination”. Besides, the “concentrations not substantially inhibitory to growth and elongation of immature embryos” value in data set [1] (in vivo) is listed as “under 0.2 mM”. Moreover, the “concentrations severely inhibitory to both shoot and root elongation” value in data set [1] (in vivo) is “above 0.2 mM”.

Regarding N-phosphono-methyl-glycine [Glyphosate], the “N-acetyl-[^14C]AMPA, of total observed [^14C]” value in data set [2] (setting [3]) turned out to be 4.54%. Besides, the “[^14C] AMPA, of total observed [^14C]” value in data set [2] (setting [3]) was 1.71%. In addition, in data set [2] (setting [3]), the “[^14C] glyphosate, of total observed [^14C]” value was 92.5%. The “Percent N-Acetyl-[^14C]-AMPA” value in data set [2] (callus OR516 transformed with pMON32926) is 0.50-4.54%; in data set [2] (callus OR516 transformed with pMON32926, listed as [^14C]-glyphosate) it was 1.91%; in data set [2] (callus line transformed with pMON32573), 0.39%; in data set [2] (callus line transformed with pMON32932) it was 0.28%; in data set [2] (callus line transformed with pMON32938) it was 0.21%; in data set [2] (callus line transformed with pMON32952), 0.37%. In addition, the “Percent N-Acetyl-[^14C]-AMPA” value was 0.22% and 0.25% in data set [2] (callus lines transformed with pMON32571, listed as [^14C]-glyphosate); 0.40% and 0.75% and 0.55% in data set [2] (callus lines transformed with pMON32931, listed as [^14C]-glyphosate); 0.77% and 0.85% in data set [2] (callus lines transformed with pMON32946, listed as [^14C]-glyphosate); 0.60% and 0.71% in data set [2] (callus lines transformed with pMON32947, listed as [^14C]-glyphosate). Moreover, the “Percent [^14C]-AMPA” value in data set [2] (callus line transformed with pMON32571) is 2.89%; in data set [2] (callus line transformed with pMON32946), 2.51%; in data set [2] (callus line transformed with pMON32947) it was 1.99%; in data set [2] (callus lines transformed with pMON32936, listed as [^14C]-glyphosate), 2.29% and 3.05% and 2.15% and 2.06%; in data set [2] (callus lines transformed with pMON32938, listed as [^14C]-glyphosate), 2.41% and 2.90%. Moreover, the “N-acetyl-[^14C]-AMPA produced” value in data set [2] (setting [4]) is listed as “no detectable levels”. In addition, the “[^14C]-AMPA produced” value in data set [2] (setting [4]) is reported as “only background levels”.
